# Source: paper PMC8344022, “Small-molecule inhibitor of AF9/ENL-DOT1L/AF4/AFF4 interactions suppresses malignant gene expression and tumor growth” (Theranostics, 2021)
# Key:
# LSD1 = LSD1 (Homo sapiens, UniProt O60341); assay: LSD1 enzyme inhibition; format: biochemical; settings: at 100 µM (Figure S3: 30 or 100 µM)
# Experimental: Inhibition of DOT1L, LSD1 and p300 was performed using our previously reported methods, [37], [38].
# LSD1, and p300 histone acetyltransferase at 30 or 100 µM, using our previous reported methods [Ref. 36, 37,
# (1 picture or pasted object on this page, not shown here)
# AF9-DOT1L interaction = target: T1, AF9-DOT1L interaction (Homo sapiens, UniProt P42568); assay: Fluorescence polarization (FP) inhibition assay, AF9-DOT1L; format: binding
# T1 construct: cDNA for human AF9 AHD domain (475-568) and ENL AHD domain (489-559) was synthesized; made in house; host or cells: E. coli BL21(DE3)
# T1 sequence (P42568 475-568): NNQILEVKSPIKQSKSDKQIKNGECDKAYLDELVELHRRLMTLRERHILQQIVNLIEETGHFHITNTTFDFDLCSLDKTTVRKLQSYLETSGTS
# Description: We developed an Alpha (amplified luminescent proximity homogeneous assay) assay to determine the binding and inhibition of the PPI between maltose-binding protein (MBP)-tagged AF9 AHD and a biotin-labeled DOT1L peptide, using AlphaLisa streptavidin donor beads and anti-MBP acceptor beads. Laser excitation to the donor beads generates singlet oxygen radicals, which can travel for <200 nm in solution and cannot reach the free acceptor beads. The PPI brings the DOT1L coated donor beads and AHD coated acceptor beads together, allowing the radicals to activate the acceptor beads and produce luminescence. […] We also developed a fluorescence polarization (FP) assay. A fluorescein-labeled DOT1L peptide has a higher freedom in solution with a lower polarization value.
# Fluorescence polarization assay. It was performed in 96-well black microplates with each well containing a Fluorescein-labeled peptide (2 nM) and increasing concentration of a AF9/ENL protein in a buffer (20 mM HEPES, pH 7.5, 0.01% Triton X-100, 100 µL) for Kd determination. For IC50 determination, a Fluorescein-labeled peptide (2 nM), AF9/ENL protein (100 nM) and increasing concentration of a compound in the same buffer were placed in each well. Upon incubation of 1h, the FP value of each well was determined using a Tecan SPARK microplate reader. Data were similarly processed to obtain Kd or IC50 values.
# [1] = system: nuclear protein levels in MV4;11 cells; assay: Western blot of nuclear proteins; format: cell-based
# Experimental: Western blot. 3x10^6 cells/well were treated with increasing concentrations of a compound for 3 days and nuclear proteins extracted with the EpiQuik Nuclear Extraction Kit (Epigentek) according to the manufacturer's protocol. Equal amounts of proteins were separated on SDS-PAGE and transferred to PVDF membranes. The blots were probed with primary antibodies, followed by anti-rabbit or anti-mouse IgG (Thermo Scientific) secondary antibodies. The primary antibodies used in this research were MBP Mouse mAb (#2396, Cell signaling), DOT1L Rabbit mAb (#77087, Cell signaling), MLL-N Rabbit mAb (#14689, Cell signaling), ENL Rabbit mAb (#14893, Cell signaling), Di-Methyl-Histone H3K79 Rabbit mAb (#5427, Cell signaling), Mono-Methyl-Histone H3K79 Rabbit mAb (#9398, Cell signaling), Histone H3 Rabbit mAb (#4499, Cell signaling), AF4 Rabbit pAb (#NBP1-28705, Novusbio) and AFF4 Rabbit pAb (#ab103586, Abcam).
smiles,measurement,setting,value
CC(C)(C)c1ccc(-n2cc(C(=O)NC3CCNCC3)nc2-c2ccccc2)cc1 [Compound 1],Inhibition of LSD1 enzyme activity,LSD1,did not significantly inhibit
same,IC50,AF9-DOT1L interaction,3.2 µM
same,Nuclear level of AFF4,[1]; 10 μM,did not cause significantly decreased AFF4
same,Nuclear protein levels of H3K79me1 and me2 and ENL,[1]; 3 days,reduced the nuclear protein levels of H3K79me1 and me2 and ENL
